Experimental data from patent US20100080860A1, “Application of short-chain monocarboxylic acids for crop protection” (UNIVERSITAT JAUME I, priority 2005, published 2010).
Values after ≈ are worked out from the molar mass of the structure shown. Values joined by “and” are separate entries in the source; they are usually repeats but may differ in a detail not shown here. Equal entries are not always repeated.

Columns and labels:
B. cinerea [1] = assay: Spray treatment of tomato plants with hexanoic acid potassium salt, B. cinerea inoculation; format: in vivo, Botrytis cinerea; conditions: for % inhibition of infection versus control: 72 h
Protocol: Hexanoic acid potassium salt was provided by preparing a mole-to-mole solution of hexanoic acid with K2CO3. A concentrated solution was prepared, adjusted to pH 6, and then dilutions were performed in order to provide in-use concentrations, namely, 20 mM, 10 mM, 6 mM and 3 mM.
The plants were treated with the formed salt by spray application and then left to dry for 30 minutes. Afterwards, treated leaves, which were previously incubated for 2 h in Gamborg medium supplemented with sucrose and phosphate, were inoculated with 5 μl of a suspension containing 10^6 spores/ml of B. cinerea, and then stored in a high-humidity chamber at 25° C. for 72 h.
The infection diameter was measured and, finally, the germination percentage was determined.

B. cinerea spores = assay: Direct antimicrobial effect in vitro: spore germination, mycelium growth, MIC/MFC in PDB; format: cell-based, Botrytis cinerea
Protocol: Test mixture contained 4×10^6 conidia/ml PDB (potatodextrose broth, Difco, Detroit, Mich., USA). Treatments (hexanoic acid and heptanoic acid) were added to PDB from stock solutions in order to obtain the different concentrations to be used (0.06 to 30 mM). Medium pH was adjusted to 3.6-5.5 using HCl or NaOH. One ml of each mixture was dispensed into sterile 24-well microplates and then incubated at 20° C. under gentle stirring. Percentage of germinated spores was calculated after 20 h incubation by staining with 0.1% lacto-fucshin (1:1) followed by microscopic observation of 100 spores. Spores were considered to be germinated when the length of germ tube was equal to or greater than spore. For assessment of efficacy in long-term treatments, test culture was left for a 7-day incubation period under previously described conditions, and mycelium development was assessed as follows: 3 ml of each culture were vacuum-filtered through pre-weighed nitrocellulose filters (Millipore, ref. HAWP02500). The filters were dried at 85° C. until weight was constant at room temperature.
For measurement of treatment effects on mycelium growth, 9×10^6 spores were inoculated to a final volume of 150 ml PDB. After 20 h incubation, spores were examined for germination by microscopic analysis, then treatments were added, and pH was adjusted to 5.5. Cultures were incubated at 20° C. under gentle stirring. After 96 h, mycelium growth was measured by determining dry weight, as described herein. […] After MIC determination, minimum fungicidal concentration (MFC) was measured as follows. After 20 h incubation, an aliquot of the cultures, in which no growth had been detected, was taken, then washed three times and added to a fresh medium without added treatment. After 20 h incubation, under previously described conditions, the germination percentage was estimated. MFC is the minimum concentration of test compound at which microorganisms are not recovered.

B. cinerea [2] = assay: Hexanoic acid root application in hydroponic cultivation, protection of tomato plants against B. cinerea; format: in vivo, Botrytis cinerea; conditions: control: water
Protocol: (§1) Experiments were performed with 4-week-old tomato plants (Cv. Ailsa Craig) in hydroponic cultivation. Before initiation of treatment, the plants were maintained in hydroponic cultivation for 1 week for habituation under such cultivation conditions. Treatment comprised the addition of hexanoic acid to a nutrient solution (Hoagland solution) at the following concentrations: 0.06 mM, 0.6 mM, 3 mM, 6 mM, 16 mM and 20 mM, pH was adjusted to 6. After 48 hours of treatment, the leaflets of the third and fourth true leaves were inoculated with 5 μl of a suspension containing 10^6 conidia B. cinerea/ml. Spores had previously been incubated in Gamborg medium (Duchefa Biochemie, The Netherlands) supplemented with sucrose and phosphate, over a period of 2 h. Spores were inoculated in this medium. For each treatment, 10 plants were used, which were kept under humidity- and temperature-controlled conditions (80% RH, 21° C.). Sampling was performed at 48, 72, 96 and 120 hours after inoculation.

B. cinerea [3] = assay: Hexanoic acid root application in soil cultivation, protection of tomato plants against B. cinerea; format: in vivo, Botrytis cinerea; conditions: control: water
Protocol: as §1
Plants were cultivated in soil and the solutions of hexanoic acid, at different concentrations, were prepared and applied in the same manner as that described above. Control was water.

B. cinerea [4] = assay: Hexanoic acid root application in soil cultivation, protection of Arabidopsis plants against B. cinerea; format: in vivo, Botrytis cinerea
Protocol: (§2) Experiments were performed with 5-week-old Arabidopsis plants cultivated in soil. Two weeks after germination, the plants were transplanted into single pots and kept at a temperature of 20° C. day/18° C. night and 8.5 h light cycle for 24 h and 60% relative humidity (RH).
(§3) The plants were treated with different concentrations of hexanoic acid (0.6 mM, 0.8 mM and 1 mM) and inoculated with 6 μl of 2.5×10^4 spores/mL Botrytis cinerea and 2×10^6 spores/mL Alternaria brassicicola.
(§4) Sampling was performed at 48, 72, 96 and 120 hours after inoculation.

A. Brassicicola = assay: Hexanoic acid root application in soil cultivation, protection of Arabidopsis plants against A. Brassicicola; format: in vivo, Alternaria brassicicola; conditions: 0.8 mM
Protocol: as §2, §3, §4

B. cinerea [5] = assay: Spray application of hexanoic acid on tomato plants against B. cinerea; format: in vivo, Botrytis cinerea; conditions: for % inhibition of invention versus control: spray application, tomato plants
Botrytis cinerea = assay: Post-harvest treatment: combined inoculation of hexanoic acid and Botrytis cinerea spores into tomato fruits; format: in vivo; conditions: combined inoculation with spores, preliminary studies
Protocol: Preliminary studies were also performed on the application of hexanoic acid for post-harvest treatment.

Peronospora parasitica = assay: Induced resistance in Arabidopsis thaliana against Peronospora parasitica; format: in vivo
Pseudomonas syringe = assay: Induced resistance in Arabidopsis thaliana against Pseudomonas syringe; format: in vivo

CCCCCC(=O)[O-].[K+] [Hexanoic acid potassium salt]
% inhibition of infection versus control (B. cinerea [1]; 6 mM): 52.1% | % inhibition of infection versus control (B. cinerea [1]; 10 mM): 61.3% | % inhibition of infection versus control (B. cinerea [1]; 20 mM, listed as potassium salt, potassium salt): 80% | % inhibition of infection versus control (B. cinerea [1]; 20 mM, potassium salt): 80.3% | % inhibition of infection versus control (B. cinerea [1]; 3M): 49.8% | inhibition at 3000 µM (B. cinerea [1]; Botrytis cinerea, 3 mM, read-out: inhibition of fungal infection): ~50%

CCCCCCC(=O)O [heptanoic acid]
concentration from which spore germination is significantly decreased / inhibited (B. cinerea spores; B. cinerea spores in vitro): ≥ 6 mM | effect on spore germination compared with hexanoic acid (B. cinerea spores; B. cinerea spores in vitro): the same at the same concentration range | germ tube development (B. cinerea spores; B. cinerea spores in vitro): entirely prevents germ tube development

CCCCCC(=O)O [hexanoic acid]
% inhibition of infection versus control (B. cinerea [2]; 0.06 mM): 35.57% | % inhibition of infection versus control (B. cinerea [2]; 0.6 mM): 48.90% | % inhibition of infection versus control (B. cinerea [2]; 3 mM): 64.06% | % inhibition of infection versus control (B. cinerea [2]; 6 mM): 61.98% | % inhibition of infection versus control (B. cinerea [2]; 16 mM): 63.52% | % inhibition of infection versus control (B. cinerea [2]; 20 mM): 53.60% | % inhibition of infection versus control (B. cinerea [3]; 0.06 mM): 60.15% | % inhibition of infection versus control (B. cinerea [3]; 0.6 mM): 49.77% | % inhibition of infection versus control (B. cinerea [4]; 0.6 mM): 10% | % inhibition of infection versus control (B. cinerea [4]; 0.8 mM): 28% | % inhibition of infection versus control (B. cinerea [4]; 1 mM): 38% | % inhibition of infection versus control (A. Brassicicola; time after inoculation 48): 54.5% | % inhibition of infection versus control (A. Brassicicola; time after inoculation 72): 40.5% | % inhibition of infection versus control (A. Brassicicola; time after inoculation 96): 6.3% | % inhibition of invention versus control (B. cinerea [5]; 3 mM): 7.63% | % inhibition of invention versus control (B. cinerea [5]; 16 mM): 67% and 66.85% | % inhibition of invention versus control (B. cinerea [5]; 20 mM): 81% and 81.47% | curative effect in plants already inoculated (B. cinerea [5]; plants already inoculated with B. cinerea, preliminary results): restrains the progress of necrosis | concentration from which spore germination is significantly decreased / inhibited (B. cinerea spores; B. cinerea spores in vitro): ≥ 3 mM | concentration that entirely inhibits germination (B. cinerea spores; B. cinerea spores in vitro): 16 mM | MFC (B. cinerea spores; Botrytis cinerea, 20 h, read-out: minimum fungicidal concentration (MFC)): 16 mM (≈ 1860 µg/mL) | reversibility of the inhibitor effect after spore washing (B. cinerea spores; spores treated at MFC, treatment removed by washing): irreversible fungicidal effect | mycelium development in already germinated spores (B. cinerea spores; treatment added after germination): inhibits mycelium development | infection rate of treated fruits (Botrytis cinerea): significant decrease in the infection rate | induced resistance (Peronospora parasitica): induced resistance | induced resistance (Pseudomonas syringe): induced resistance
